The values that follow come from publication PMC6735221, “A phase Ib dose-finding, pharmacokinetic study of the focal adhesion kinase inhibitor GSK2256098 and trametinib in patients with advanced solid tumours” (British Journal of Cancer, 2019).

Series [1] deals with Merlin-negative (encoded by NF-2) mesothelioma cells. Set-up: method as in doi:10.1016/S0959-8049(12)72185-8. Particulars: preclinical studies; cited from earlier work.
The test system of series [2] is human carboxylesterases (eg, hCES1b, hCES1c, and hCES2). Set-up: method as in GSK data on file. Particulars: in vitro investigation; ref GSK data on file; cited from earlier work.
Series [3] can be described thus: GSK2256098 pharmacokinetics, whole blood, Day 15. The class given is in vivo, human. Particulars: for Cmax: read-out: Cmax, Geometric mean (%CV); for Tmax: read-out: tmax, Median (range). The procedure: (§1) Approximately 15 μL blood was then transferred from the “end-to-end” EDTA capillary tube onto the Whatman FTA DBS card.
Series [4] in a line: Adverse events (CTCAE v4.0) in patients. The conditions noted are these: diarrhoea, lower respiratory tract infection, nausea, vomiting.
Procedure: (§2) AEs were assessed throughout the study using the National Cancer Institute Common Terminology Criteria for Adverse Events v4.0 guidelines.[13]
(§3) Haematology and clinical chemistry laboratory tests were performed at baseline, Days 1, 8, 15, 22, 29, and every 4 weeks thereafter. Electrocardiograms were performed at baseline, Days 1, 15, 22, and then every 8 weeks from Day 1.
The nature of series [5]: GSK2256098 pharmacokinetics, dry blood spot, Day 15. The class given is in vivo. The conditions noted are these: human, oral; for Cmax: read-out: Cmax, Geometric mean (%CV); for Tmax: read-out: tmax, Median (range). The procedure: as §1
For another series, the system named is mesothelioma. Further details: method as in PMID 27733373. Particulars: GSK2256098 monotherapy, phase I; cited from earlier work.
The conditions of series [6]: human, in vivo.
Procedure: Blood samples for pharmacokinetic analysis were collected prior to morning dosing of GSK2256098 on Day 15, and at 1, 1.5, 2, 4, 6, 8 h after the morning dose of GSK2256098. Trametinib was administered immediately after the 1.5-hour pharmacokinetic sample was collected.
For PK analysis of trametinib, blood samples were taken via an indwelling cannula (or by direct venepuncture), collected into a di-potassium ethylenediaminetetraacetic acid (K2-EDTA) tube and immediately placed on water ice. Blood samples stored on wet ice were centrifuged within 1 h of collection at approximately 1500 g for 10 min at 4 °C. Supernatant plasma was transferred to a 3.6 mL Nunc tube and stored at 20 °C before shipment. Samples were shipped frozen on dry ice at agreed timepoints throughout the study to GSK Pharmaceuticals, Upper Merion, PA, USA, for analysis.
Plasma samples were analysed for trametinib using the validated analytical method based on liquid-liquid extraction, followed by high-performance liquid chromatography mass spectrometry (HPLC-MS/MS) analysis using a TurboIonSpray interface and multiple reaction monitoring. The lower limit of quantification (LLQ) for trametinib was 0.25 ng/mL using a 50-mL aliquot of human plasma with a higher limit of quantification (HLQ) of 250 ng/mL. Blood samples were analysed for GSK2256098 using a validated analytical method based on acetonitrile extraction from dried blood spots on the Whatman FTA DBS card, followed by HPLC/MS/MS analysis using a TurboIonSpray interface and multiple reaction monitoring. The LLQ for GSK2256098 was 10 ng/mL using a 3-mm diameter.
GSK2256098 whole-blood and dry blood spot concentration-time data as well as trametinib plasma concentration-time data were analysed by standard noncompartmental methods using Phoenix WinNonlin version 6.3. Calculations of all Pharmacokinetic parameters were based on doses of GSK2256098 and trametinib administered and actual sampling times from the respective dosing.
Details of series [7]: method as in PMID 22805291. The conditions noted are these: Trametinib 2.0 mg monotherapy (n = 13), plasma; cited from earlier work.
The conditions of series [8]: human, in vivo. This is another data set of the same source.
Procedure: as §2, §3
Setting [9] is: human, oral, GSK2256098 250 mg (n = 10) with trametinib, whole blood, Day 15.
The mark [10] stands for this setting: human, oral, GSK2256098 500 mg (n = 21) with trametinib, whole blood, Day 15.
Where [11] appears, read: GSK2256098 250 mg (n = 6) with trametinib.
The mark [12] stands for this setting: GSK2256098 500 mg (n = 10) with trametinib.

SMILES strings stand for the structures. Read-outs that look alike come from different tables or passages of the source.

As usually defined, the AUC is the area under the concentration-time curve, a measure of exposure. A word on the Cmax: it is the peak of the concentration-time curve. A word on the Tmax: it is the time from dosing to the highest level. `CONC(=O)c1ccccc1Nc1cc(Nc2cc(C)nn2C(C)C)ncc1Cl` [GSK2256098]: the MTD in combination is listed as 500 mg BID (high GSK2256098/low trametinib MTD, GSK2256098 part) and 250 mg BID (low GSK2256098/high trametinib MTD, GSK2256098 part). Further, in series [1], the “activity in vitro in Merlin-negative versus Merlin-positive mesothelioma cells” value is on record as “at least 20 times”. Further, the “effect on deacetylation of trametinib by human carboxylesterases” value in series [2] is on record as “inhibits deacetylation of trametinib”. Besides, the AUC in series [3] (human, oral, GSK2256098 250 mg (n = 10) with trametinib, whole blood, Day 15, read-out: AUC(0–τ), Geometric mean (%CV)) was 5470 ng·h/mL; in series [5] (GSK2256098 250 mg (n = 6) with trametinib, read-out: AUC(0–τ), Geometric mean (%CV)), 4980 ng·h/mL. The Cmax in [3] (setting [9]) is 1400 ng/mL; in series [3] (setting [10]) it was 2450 ng/mL; in [5] (setting [11]), 1230 ng/mL; in series [5] (setting [12]), 2830 ng/mL. The Tmax in [3] (setting [9]) worked out at 2 h; in series [3] (setting [10]) it was 2 h; in series [5] (setting [11]) it was 2.8 h; in [5] (setting [12]), 2 h. Besides, the “median time to Cmax (tmax)” value in [3] (post-dose, across dose groups, with trametinib) was around 2 h. Besides, the “exposure of GSK2256098 when co-administered with trametinib” value in [3] (versus previous monotherapy study) was “not altered”. The “relation of the most common serious AEs to GSK2256098” value in [4] was “none of these were considered related to GSK2256098”. Besides, the “PFS of Merlin-negative versus Merlin-positive mesothelioma patients” value in the series on mesothelioma is reported as “nearly twice”.
Take `CC(=O)Nc1cccc(-n2c(=O)n(C3CC3)c(=O)c3c(Nc4ccc(I)cc4F)n(C)c(=O)c(C)c32)c1` [trametinib]: the MTD in combination (high GSK2256098/low trametinib MTD, trametinib part) came out at 0.375 mg QD. For the setting “low GSK2256098/high trametinib MTD, trametinib part”, the MTD in combination is on record as 0.5 mg QD. Moreover, in [6], the “Trametinib exposure (Cmax and AUC) with GSK2256098 versus trametinib monotherapy” value is 2- to 4 fold; the “median time to Cmax (tmax)” value was in the range of 1.5 to 2.5 h; the “tmax of trametinib with GSK2256098 co-administration” value is “slightly delayed”. Besides, in series [7], the “Cmax, Geometric mean (%CV)” value is reported as 22.2 (28) ng/mL and the “tmax, Median (range)” value is 1.75 (1.0–3.0) h. Further, the “subjects with an SAE that could be attributed to trametinib” value in [8] amounted to 15%.
